Key:
human red blood cells = test: Haemolysis assay; assay type: cell-based; settings: 1 h, 37°C; highest concentration used 128 μg/ml
Procedure: This was performed using fresh donor human red blood cells (RBCs), essentially as described previously. Fresh RBCs were washed in PBS three times at 500 × g for 5 min, and then resuspended 1% (w/v) in PBS. […] Thereafter, 198 μL of the 1% RBC solution was added into each well, and the mixture incubated for 1 h at 37°C, with shaking at 100 rpm. Quadruplicate wells containing either 1% Triton X100, or PBS only, served as controls. After incubation, the trays were centrifuged at 1,000 × g for 3 min and 100 μl of supernatant from each well transferred into a new 96-well tray. Absorbance was measured at A450 nm on a Multiskan Ascent 354 Spectrophotometer (Labsystems) and plotted against each dilution. Haemolytic titer was determined as the reciprocal of the dilution at which 50% of erythrocytes were lysed at A450 nm. The experiment was performed twice.

MDBK = test: In vitro cytotoxicity, WST-1; assay type: cell-based, bovine; settings: Bos taurus, 24 h exposure, read-out: IC50 values ± SEM
Source text: (§1) In order to ensure minimal off target mammalian cell cytotoxicity, we assayed NCL812, NCL195 and NCL219 for in vitro cytotoxicity using a panel of adherent mammalian cell lines: Caco-2 (human colorectal adenocarcinoma cell line), HEL 299 (non-cancerous human lung fibroblast cell line), Hep G2 (human hepatocellular carcinoma cell line), MDBK (normal bovine kidney cell line) and MCF7 (human mammary gland adenocarcinoma cell line). Cell lines were maintained in Dulbecco’s Modified Eagle’s Medium (DMEM; […] After 24 h incubation, media was removed, washed once with medium without antibiotics and fresh medium supplemented with 10% (vol/vol) FBS was added. […] Following exposure for 24 h, WST-1 reagent was added to each well at a final concentration of 10%. […] The IC50 value for each compound against each cell line was determined via non-linear regression (three parameters) using GraphPad Prism v6 software. The robustness of assays was confirmed with selected cell lines (Hep G2 and MDBK) seeded onto a 96–well Microwell Nunclon Delta Surface plate (Thermo Scientific Nunc; Cat No: 136101) at 5 × 10^4 cells per well.

S. pneumoniae D39 [1] = test: Minimum bactericidal concentration (MBC); assay type: cell-based; settings: Streptococcus pneumoniae
S. aureus ATCC49775 = test: Membrane potential, DiOC2(3) fluorescence; assay type: cell-based, Staphylococcus aureus; settings: 16 μg/ml, pre-incubated 5 min; versus untreated and ampicillin
Procedure: (§2) To further examine the mechanism underlying the perturbation of the cell membrane of S. pneumoniae or S. aureus by the NCL compounds, the membrane potential of the cells was measured by fluorescence spectrometry using (DiOC2(3), essentially as described previously. Briefly, […] cells from an overnight HBA plate were grown in Todd-Hewitt broth supplemented with 1% yeast extract (THY) at 37°C, 5% CO2 until A600 nm = 0.5. […] The cuvette was then placed in a LS 55 Fluorescence Spectrometer (PerkinElmer) set at Ex. 488 nm/Em. 620 nm, with excitation and emission slit widths at 5 nm and 7 nm, respectively). […] All assays were performed at least twice.

[2] = tested on: vancomycin-resistant enterococci (VRE); test: MIC, broth micro-dilution (CLSI); assay type: cell-based, enterococci (porcine isolates); settings: for MIC50 / MIC90 / MIC: Enterococcus, VRE
[3] = Kinetic solubility by nephelometry; assay type: physicochemical; settings: kinetic from dmso stock
S. aureus Xen29 = test: Minimum bactericidal concentration (MBC); assay type: cell-based; settings: Staphylococcus aureus, 99.9% colony count reduction
Procedure: The tray was covered with Breathe-Easy sealing membrane (Z380059, Sigma-Aldrich) and incubated for 16 h overnight at 35°C in an EnSpire Multimode Plate Reader 2300 (PerkinElmer), with data collected every 20 min and 2 sec agitation at 60 rpm between data (A600 nm) acquisitions. The experiment was repeated using the luminescent D39LUX strain on a Cytation 5 Cell Imaging Multi-Mode Reader (BioTek) using IsoplateTM-96 F tray PerkinElmer, 6005020). Kill kinetic assays on S. aureus Xen29 was carried out essentially as described for MIC determination on Cytation 5 Cell Imaging Multi-Mode Reader.
In order to determine the MBC of each compound against S. pneumoniae D39 or S. aureus Xen29, 10 μl aliquots from each duplicate well from the MIC assays (starting from the MIC for each compound) was inoculated onto a HBA plate and incubated at 37°C (+ 5% CO2 for S. pneumoniae D39). Plates were examined at 24 and 48 h and the MBC was recorded as the lowest concentration of each test compound at which a 99.9% colony count reduction was observed on the plate.

HEL 299 = test: In vitro cytotoxicity, WST-1; assay type: cell-based; settings: Homo sapiens, 24 h exposure, read-out: IC50 values ± SEM
Source text: as §1

MCF7 = test: In vitro cytotoxicity, WST-1; assay type: cell-based; settings: Homo sapiens, 24 h exposure, read-out: IC50 values ± SEM
Source text: as §1

Caco-2 = test: In vitro cytotoxicity, WST-1; assay type: cell-based; settings: Homo sapiens, 24 h exposure, read-out: IC50 values ± SEM
Source text: as §1

Hep G2 = test: In vitro cytotoxicity, WST-1; assay type: cell-based; settings: Homo sapiens, HepG2; 24 h exposure; read-out: IC50 values ± SEM
Source text: as §1

S. pneumoniae D39 [4] = test: Membrane potential, DiOC2(3) fluorescence; assay type: cell-based, Streptococcus pneumoniae; settings: 16 μg/ml, pre-incubated 5 min; versus untreated and ampicillin
Procedure: as §2

[5] = LogD by gradient HPLC chromatographic method; assay type: physicochemical; settings: pH 7.4
[6] = S3 Table isolates, absence of FBS

Cl.N=C(NN=Cc1ccc(Cl)cc1)NN=Cc1ccc(Cl)cc1 [NCL812, 2,2'-bis[(4-chlorophenyl)methylene] carbonimidic dihydrazide hydrochloride]
50% haemolysis titre (HC50) (human red blood cells): 24 µg/mL | IC50 (MDBK): 5.9 ± 0.1 µg/mL | MBC (S. pneumoniae D39 [1]): 8 µg/mL | Effect on generated membrane potential (S. aureus ATCC49775): large reduction in the magnitude of the generated membrane potential | Fold increase of MIC range in the presence of 10% FBS ([2]; 10% FBS versus no FBS): 8-16 fold | MIC range ([2]; 20 isolates): 2 to 4 µg/mL | MIC50 ([2]; S3 Table isolates, 10% FBS): 32 µg/mL | MIC90 ([2]; S3 Table isolates, 10% FBS): 32 µg/mL | MIC50 [2, 6]: 2 µg/mL | MIC90 [2, 6]: 2 µg/mL | MIC ([2]; VRE 1 (49 FR), 10% FBS): 32 µg/mL | MIC ([2]; VRE 1 (49 FR), absence of FBS): 2 µg/mL | MIC ([2]; VRE 2 (53 FR), 10% FBS): 32 µg/mL | MIC ([2]; VRE 2 (53 FR), absence of FBS): 2 µg/mL | MIC ([2]; VRE 3 (55 FR), 10% FBS): 32 µg/mL | MIC ([2]; VRE 3 (55 FR), absence of FBS): 2 µg/mL | MIC ([2]; VRE 4 (57 FR), 10% FBS): 32 µg/mL | MIC ([2]; VRE 4 (57 FR), absence of FBS): 2 µg/mL | MIC ([2]; VRE5 (58 FR), 10% FBS): 32 µg/mL | MIC ([2]; VRE5 (58 FR), absence of FBS): 4 µg/mL | MIC ([2]; VRE 6 (59 FR), 10% FBS): 32 µg/mL | MIC ([2]; VRE 6 (59 FR), absence of FBS): 2 µg/mL | MIC ([2]; VRE 7 (270 G), 10% FBS): 32 µg/mL | MIC ([2]; VRE 7 (270 G), absence of FBS): 4 µg/mL | MIC ([2]; VRE 8 (277 G), 10% FBS): 32 µg/mL | MIC ([2]; VRE 8 (277 G), absence of FBS): 2 µg/mL | MIC ([2]; VRE 9 (61 FR), 10% FBS): 32 µg/mL | MIC ([2]; VRE 9 (61 FR), absence of FBS): 2 µg/mL | MIC ([2]; VRE 10 (62 FR), 10% FBS): 32 µg/mL | MIC ([2]; VRE 10 (62 FR), absence of FBS): 2 µg/mL | MIC ([2]; VRE 11 (284 G), 10% FBS): 32 µg/mL | MIC ([2]; VRE 11 (284 G), absence of FBS): 2 µg/mL | MIC ([2]; VRE 12 (290 G), 10% FBS): 32 µg/mL | MIC ([2]; VRE 12 (290 G), absence of FBS): 2 µg/mL | MIC ([2]; VRE 13 (251 G), 10% FBS): 32 µg/mL | MIC ([2]; VRE 13 (251 G), absence of FBS): 2 µg/mL | MIC ([2]; VRE 14 (252 G), 10% FBS): 32 µg/mL | MIC ([2]; VRE 14 (252 G), absence of FBS): 2 µg/mL | MIC ([2]; VRE 15 (63 FR), 10% FBS): 32 µg/mL | MIC ([2]; VRE 15 (63 FR), absence of FBS): 2 µg/mL | MIC ([2]; VRE 16 (60 FR), 10% FBS): 32 µg/mL | MIC ([2]; VRE 16 (60 FR), absence of FBS): 4 µg/mL | MIC ([2]; VRE 17 (45 FR), 10% FBS): 32 µg/mL | MIC ([2]; VRE 17 (45 FR), absence of FBS): 2 µg/mL | MIC ([2]; VRE 18 (69 W), 10% FBS): 32 µg/mL | MIC ([2]; VRE 18 (69 W), absence of FBS): 2 µg/mL | MIC ([2]; VRE 19 (70 W), 10% FBS): 32 µg/mL | MIC ([2]; VRE 19 (70 W), absence of FBS): 2 µg/mL | MIC ([2]; VRE 20 (78 W), 10% FBS): 32 µg/mL | MIC ([2]; VRE 20 (78 W), absence of FBS): 2 µg/mL | MIC range ([2]; S3 Table isolates, 10% FBS): 32 µg/mL | MIC range [2, 6]: 2 to 4 µg/mL | solubility ([3]; pH 2.0): 6.3 to 12.5 µg/mL | solubility ([3]; pH 6.5): < 1.6 µg/mL | MBC (S. aureus Xen29): 4 µg/mL | IC50 (HEL 299): 4.6 ± 0.1 µg/mL | IC50 (MCF7): 12 ± 0.2 µg/mL | IC50 (Caco-2): 8.2 ± 0.1 µg/mL | IC50 (Hep G2): 9.4 ± 0.1 µg/mL | Effect on generated membrane potential (S. pneumoniae D39 [4]): large reduction in the magnitude of the generated membrane potential | chromatographic logD [5]: 4.5
